In patent US20230339937A1, “CONDENSED RING COMPOUNDS THAT INHIBIT H-PGDS” (SATO PHARMACEUTICAL CO., LTD., priority 2020, published 2023):

Biological target: T1, Recombinant human H-PGDS (Homo sapiens, UniProt O60760)
T1 construct: made in house; host or cells: E. coli
Experiment: H-PGDS inhibitory activity (prostaglandin D2 production from prostaglandin H2, measured by LC-MS/MS)
Format: biochemical
Settings: recombinant human H-PGDS 1.0 nM expressed in E. coli; prostaglandin H2 25 μM; preincubated 15 minutes on ice, reacted on ice for 1 minute; concentration that inhibits prostaglandin D2 production by 50%
Summary of the method: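 Recombinant human H-PGDS (E. coli-expressed, 1.0 nM final) preincubated with compound 15 min on ice in 20 mM Tris-HCl pH 8.0, 2 mM MgCl2, 2 mM GSH, 0.5 mg/mL γ-globulin. Reaction with 25 µM PGH2 run 1 min on ice, stopped with FeCl2/citric acid, PGD2 quantified by LC-MS/MS. Activity expressed as % of DMSO control after subtracting non-enzymatic PGD2.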

T1 sequence (O60760 whole entry): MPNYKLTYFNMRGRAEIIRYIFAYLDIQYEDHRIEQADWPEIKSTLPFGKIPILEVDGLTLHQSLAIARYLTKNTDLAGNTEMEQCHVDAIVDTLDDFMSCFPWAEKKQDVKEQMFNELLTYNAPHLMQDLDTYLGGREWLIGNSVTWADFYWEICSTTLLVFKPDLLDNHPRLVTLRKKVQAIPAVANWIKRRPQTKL

SMILES	IC50 [nM]
O=C(N[C@H]1CCN(c2ccnc(Cl)c2)C1)c1ccc(-c2nccc3occc23)cc1 [Example 195, (S)-N-[1-(2-chloropyridin-4-yl)pyrrolidin-3-yl]-4-(furo[3,2-c]pyridin-4-yl)benzamide]	1.7
O=C(N[C@H]1CCN(c2ccnc(F)c2)C1)c1ccc(-c2nccc3occc23)cc1 [Example 196, (S)-N-[1-(2-fluoropyridin-4-yl)pyrrolidin-3-yl]-4-(furo[3,2-c]pyridin-4-yl)benzamide]	1.5
O=C(N[C@H]1CCN(c2ccc(CO)cn2)C1)c1ccc(-c2nccc3occc23)cc1 [Example 197, (S)-4-(furo[3,2-c]pyridin-4-yl)-N-{1-[5-(hydroxymethyl)pyridin-2-yl]pyrrolidin-3-yl}benzamide]	6.1
O=C(N[C@H]1CCN(c2cnc(CO)cn2)C1)c1ccc(-c2nccc3occc23)cc1 [Example 198, (S)-4-(furo[3,2-c]pyridin-4-yl)-N-{1-[5-(hydroxymethyl)pyrazin-2-yl]pyrrolidin-3-yl}benzamide]	2.3
O=C(N[C@H]1CCN(CC(F)(F)F)C1)c1ccc(-c2nccc3occc23)cc1 [Example 199, (S)-4-(furo[3,2-c]pyridin-4-yl)-N-[1-(2,2,2-trifluoroethyl)pyrrolidin-3-yl]benzamide]	9.7
CC(C)(O)c1cnc(N2CC[C@H](NC(=O)c3ccc(-c4nccc5occc45)cc3)C2)nc1 [Example 200, (S)-4-(furo[3,2-c]pyridin-4-yl)-N-{1-[5-(2-hydroxypropan-2-yl)pyrimidin-2-yl]pyrrolidin-3-yl}benzamide]	1.1
N#Cc1cnc(N2CC[C@H](NC(=O)c3ccc(-c4nccc5occc45)cc3)C2)nc1 [Example 201, (S)—N-[1-(5-cyanopyrimidin-2-yl)pyrrolidin-3-yl]-4-(furo[3,2-c]pyridin-4-yl)benzamide]	1.2
NC(=O)c1cnc(N2CC[C@H](NC(=O)c3ccc(-c4nccc5occc45)cc3)C2)nc1 [Example 202, (S)-2-(3-[4-(furo[3,2-c]pyridin-4-yl)benzamide]pyrrolidin-1-yl)pyrimidine-5-carboxamide]	1.5
O=C(N[C@@H]1CN(c2ncc(CO)cn2)C[C@H]1F)c1ccc(-c2nccc3occc23)cc1 [Example 203, N-{(3R,4R)-4-fluoro-1-[5-(hydroxymethyl)pyrimidin-2-yl]pyrrolidin-3-yl}-4-(furo[3,2-c]pyridin-4-yl)benzamide]	1.9
O=C(N[C@@H]1CN(c2ncc(CO)cn2)C[C@@H]1F)c1ccc(-c2nccc3occc23)cc1 [Example 204, N-{(3R,4S)-4-fluoro-1-[5-(hydroxymethyl)pyrimidin-2-yl]pyrrolidin-3-yl}-4-(furo[3,2-c]pyridin-4-yl)benzamide]	1.1
CO[C@@H]1CN(c2ncc(CO)cn2)C[C@H]1NC(=O)c1ccc(-c2nccc3occc23)cc1 [Example 205, 4-(furo[3,2-c]pyridin-4-yl)-N-((3R,4R)-1-[5-(hydroxymethyl)pyrimidin-2-yl]-4-methoxypyrrolidin-3-yl)benzamide]	5.6
CO[C@H]1CN(c2ncc(CO)cn2)C[C@H]1NC(=O)c1ccc(-c2nccc3occc23)cc1 [Example 206, 4-(furo[3,2-c]pyridin-4-yl)-N-((3R,4S)-1-[5-(hydroxymethyl)pyrimidin-2-yl]-4-methoxypyrrolidin-3-yl)benzamide]	39
O=C(N[C@@H]1CN(c2ncc(CO)cn2)C[C@H]1O)c1ccc(-c2nccc3occc23)cc1 [Example 207, 4-(furo[3,2-c]pyridin-4-yl)-N-((3R,4R)-4-hydroxy-1-[5-(hydroxymethyl)pyrimidin-2-yl]pyrrolidin-3-yl)benzamide]	6.7
O=C(N[C@@H]1CN(c2ncc(CO)cn2)C[C@@H]1O)c1ccc(-c2nccc3occc23)cc1 [Example 208, 4-(furo[3,2-c]pyridin-4-yl)-N-((3R,4S)-4-hydroxy-1-[5-(hydroxymethyl)pyrimidin-2-yl]pyrrolidin-3-yl)benzamide]	14
O=C(NC1CC2(CNC2)C1)c1ccc(-c2nccc3occc23)cc1 [Example 209, 4-(furo[3,2-c]pyridin-4-yl)-N-(2-azaspiro[3.3]heptan-6-yl)benzamide]	39
O=C(NC1CC2(C1)CN(c1ncccn1)C2)c1ccc(-c2nccc3occc23)cc1 [Example 210, 4-(furo[3,2-c]pyridin-4-yl)-N-[2-(pyrimidin-2-yl)-2-azaspiro[3.3]heptan-6-yl]benzamide]	3.5
O=C(N[C@@H]1CC[C@@H](CO)OC1)c1ccc(-c2nccc3occc23)cc1 [Example 211, 4-(furo[3,2-c]pyridin-4-yl)-N-[(3R,6S)-6-(hydroxymethyl)tetrahydro-2 H-pyran-3-yl]benzamide]	2.5
CC(O)[C@@H]1CC[C@@H](NC(=O)c2ccc(-c3nccc4occc34)cc2)CO1 (stereo partly drawn) [Example 212, 4-(furo[3,2-c]pyridin-4-yl)-N-[(3R,6S)-6-(1-hydroxyethyl)tetrahydro-2 H-pyran-3-yl]benzamide]	3.8
CC(=O)[C@@H]1CC[C@@H](NC(=O)c2ccc(-c3nccc4occc34)cc2)CO1 [Example 213, N-[(3R,6S)-6-acetyltetrahydro-2 H-pyran-3-yl]-4-(furo[3,2-c]pyridin-4-yl)benzamide]	4.3
CC(C)(O)[C@@H]1CC[C@@H](NC(=O)c2ccc(-c3nccc4occc34)cc2)CO1 [Example 214, 4-(furo[3,2-c]pyridin-4-yl)-N-[(3R,6S)-6-(2-hydroxypropan-2-yl)tetrahydro-2 H-pyran-3-yl]benzamide]	3.4
O=C(NC1CN(c2ncccn2)C1)c1ccc(-c2nccc3occc23)cc1 [Example 217, 4-(furo[3,2-c]pyridin-4-yl)-N-[1-(pyrimidin-2-yl)azetidin-3-yl]benzamide]	2.4
O=C(NC[C@H]1C[C@H](O)C1)c1ccc(-c2nccc3occc23)cc1 [Example 218, 4-(furo[3,2-c]pyridin-4-yl)-N-[(trans-3-hydroxycyclobutyl)methyl]benzamide]	21
O=C(NC[C@H]1C[C@@H](O)C1)c1ccc(-c2nccc3occc23)cc1 [Example 219, 4-(furo[3,2-c]pyridin-4-yl)-N-[(cis-3-hydroxycyclobutyl)methyl]benzamide]	12
O=C(NC(CO)c1ccccn1)c1ccc(-c2nccc3occc23)cc1 (stereo not drawn) [Example 220, 4-(furo[3,2-c]pyridin-4-yl)-N-[2-hydroxy-1-(pyridin-2-yl)ethyl]benzamide]	68
O=C(NCC1COc2ccccc2C1)c1ccc(-c2nccc3occc23)cc1 (stereo not drawn) [Example 221, N-(chroman-3-ylmethyl)-4-(furo[3,2-c]pyridin-4-yl)benzamide]	4.9
O=C(Nc1ccc(N2CCC(C(=O)N3CCOCC3)CC2)cc1)c1ccc(-c2nccc3occc23)cc1 [Example 222, 4-(furo[3,2-c]pyridin-4-yl)-N-(4-[4-(morpholine-4-carbonyl)piperidin-1-yl]phenyl)benzamide]	2.3
O=C(Nc1ccc(N2CCC(C(=O)N3CCOCC3)CC2)c(F)c1)c1ccc(-c2nccc3occc23)cc1 [Example 223, N-{3-fluoro-4-[4-(morpholine-4-carbonyl)piperidin-1-yl]phenyl}-4-(furo[3,2-c]pyridin-4-yl)benzamide]	5.3
